Measurements as given in KR20230047805A, “알기나제 유래 펩타이드를 포함하는 심혈관 질환 예방 또는 치료용 조성물” (강원대학교산학협력단, priority 2021, dated 2023).

Columns and labels:
eNOS = test: Western blot of eNOS phosphorylation (Ser1177, Thr495) in peptide-treated HUVECs; type: cell-based, human; details: peptide 10 μM, 12 h
p32 단백질 [1] = molecular target: T1, p32 단백질 (Homo sapiens, UniProt Q07021); test: p32 protein level under proteasome inhibition (MG132) in HUVECs, Western blot; type: cell-based; details: peptide 10 μM, 12 h
T1 construct: 펩타이드를 처리한 HUVECs을 1X SDS sample buffer로 lysis한 뒤; endogenous in cells; host or cells: HUVECs
T1 sequence (Q07021 74-282): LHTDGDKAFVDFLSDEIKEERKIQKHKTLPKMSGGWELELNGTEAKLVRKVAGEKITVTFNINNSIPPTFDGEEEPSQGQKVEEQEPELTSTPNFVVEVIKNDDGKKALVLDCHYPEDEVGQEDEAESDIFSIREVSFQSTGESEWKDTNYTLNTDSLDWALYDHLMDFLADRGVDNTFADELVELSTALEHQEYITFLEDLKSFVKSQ

p32 단백질 [2] = molecular target: T1, p32 단백질; test: Western blot of p32 protein level in peptide-treated HUVECs; type: cell-based; details: 12 h
알기나제와 p32 단백질의 결합 = molecular target: T2, 알기나제와 p32 단백질의 결합 (Homo sapiens, UniProt Q07021); test: Co-immunoprecipitation: binding of arginase and p32 in HUVECs; type: cell-based; details: peptide 10 μM, 12 h, co-IP with p32 antibody
T2 construct: YDIQY 펩타이드를 처리한 HUVECs을 RIPA buffer를 이용하여 lysis하고; endogenous in cells; host or cells: HUVECs
T2 sequence (Q07021 74-282): T1 sequence (Q07021 74-282)

CaMKII = test: Western blot of CaMKII phosphorylation in peptide-treated HUVECs; type: cell-based, human; details: peptide 10 μM, 12 h
ApoE-/-+HCD 생쥐 대동맥 [3] = test: NO measurement (DAF-FM fluorescence) in aorta of atherosclerosis model mice after i.v. peptide; type: in vivo, mouse; details: 0.25 mM/kg i.v. every second day, 5 injections in 10 days
ApoE-/-+HCD 생쥐 대동맥 절편 = test: Vascular tension measurement of aortic segments of atherosclerosis model mice after i.v. peptide; type: in vivo, mouse
ApoE-/-+HCD 생쥐 대동맥 [4] = test: ROS measurement (DHE fluorescence) in aorta of atherosclerosis model mice after i.v. peptide; type: in vivo, mouse; details: 0.25 mM/kg i.v. every second day, 5 injections in 10 days
p32 단백질 [5] = molecular target: T1, p32 단백질; test: Co-immunoprecipitation: ubiquitination of p32 in HUVECs; type: cell-based; details: peptide 10 μM, 12 h, co-IP with p32 antibody
p32 단백질 [6] = molecular target: T1, p32 단백질; test: Mitochondrial fractionation and immunoblotting of p32 in HUVECs; type: cell-based; details: peptide 10 μM, 12 h, mitochondrial fraction
[7] = Tail-cuff blood pressure measurement (CODA) in wild-type mice after i.v. peptide; type: in vivo, mouse; details: WT mice, 0.25 mM/kg i.v. once daily, 4day

- p32 protein level (p32 단백질 [1]; with proteasome inhibitor MG132 10 μM, 24 h): 감소되지 않는
- p32 protein level (p32 단백질 [1]; without MG132): 감소하였지만
- p32 protein level (p32 단백질 [2]; peptide 10 μM, Western blot): 감소되었고
- cytoplasmic p32 protein level (p32 단백질 [2]; peptide 0.01, 0.1, 1, 10 μM): 농도 의존적으로 감소
- binding of p32 with arginase vs control (알기나제와 p32 단백질의 결합): 감소되어있는
- p32 ubiquitination vs control (p32 단백질 [5]): 증가되어
- mitochondrial p32 protein level (p32 단백질 [6]): 유의하게 감소
Substance: YDIQY: penta-peptide of SEQ ID NO: 1 designed from the arginase/p32 binding site; p32 inhibiting activity (printed: Tyr Asp Ile Gln Tyr)
- eNOS Ser1177 (activating site) phosphorylation (eNOS): 증가되었으며
- eNOS Thr495 (inactivating site) phosphorylation (eNOS): 감소되는
- CaMKII phosphorylation (activity) (CaMKII): 증가하였고
- NO production in aorta (ApoE-/-+HCD 생쥐 대동맥 [3]): 정상 생쥐 수준만큼 회복
- Ach-dependent relaxation of aortic segments (ApoE-/-+HCD 생쥐 대동맥 절편; ApoE-/-+HCD mice, 0.25 mM/kg i.v. x5, Ach 10-9~10^-5 M): 정상 생쥐 수준만큼 회복되는
- PE-dependent contraction of aortic segments (ApoE-/-+HCD 생쥐 대동맥 절편; ApoE-/-+HCD mice, 0.25 mM/kg i.v. x5, PE 10-9~10^-5 M): 정상 생쥐 수준만큼 회복하는
- KCl contraction of aortic segments (ApoE-/-+HCD 생쥐 대동맥 절편; four groups compared, KCl 60 mM, 20 min): 차이가 없음
- SNP-dependent (endothelium-independent) relaxation of aortic segments (ApoE-/-+HCD 생쥐 대동맥 절편; four groups compared, SNP 10-10~10^-6 M): 차이가 없음
- ROS production in aorta (ApoE-/-+HCD 생쥐 대동맥 [4]): 정상 생쥐 수준만큼 회복
- 수축기 (systolic pressure) [7]: 유의하게 감소
- 이완기 (diastolic pressure) [7]: 유의하게 감소
- 평균 대동맥압 (mean aortic pressure) [7]: 유의하게 감소
